These results are taken from ChEMBL document CHEMBL1201862, “PubChem BioAssay data set” (2004).

As usually defined, the IC50 is the midpoint of a concentration-inhibition curve. As usually defined, the CC50 is the concentration at which the toxic effect on the cells reaches its halfway point. As usually defined, the EC50 is the midpoint of the concentration-response curve. By AC50 is commonly meant the concentration at which the activity in the assay is half-maximal.

One experiment has as its target T1, Hexokinase HKDC1 (Homo sapiens, UniProt Q2TB90).
T1 sequence (Q2TB90 whole entry): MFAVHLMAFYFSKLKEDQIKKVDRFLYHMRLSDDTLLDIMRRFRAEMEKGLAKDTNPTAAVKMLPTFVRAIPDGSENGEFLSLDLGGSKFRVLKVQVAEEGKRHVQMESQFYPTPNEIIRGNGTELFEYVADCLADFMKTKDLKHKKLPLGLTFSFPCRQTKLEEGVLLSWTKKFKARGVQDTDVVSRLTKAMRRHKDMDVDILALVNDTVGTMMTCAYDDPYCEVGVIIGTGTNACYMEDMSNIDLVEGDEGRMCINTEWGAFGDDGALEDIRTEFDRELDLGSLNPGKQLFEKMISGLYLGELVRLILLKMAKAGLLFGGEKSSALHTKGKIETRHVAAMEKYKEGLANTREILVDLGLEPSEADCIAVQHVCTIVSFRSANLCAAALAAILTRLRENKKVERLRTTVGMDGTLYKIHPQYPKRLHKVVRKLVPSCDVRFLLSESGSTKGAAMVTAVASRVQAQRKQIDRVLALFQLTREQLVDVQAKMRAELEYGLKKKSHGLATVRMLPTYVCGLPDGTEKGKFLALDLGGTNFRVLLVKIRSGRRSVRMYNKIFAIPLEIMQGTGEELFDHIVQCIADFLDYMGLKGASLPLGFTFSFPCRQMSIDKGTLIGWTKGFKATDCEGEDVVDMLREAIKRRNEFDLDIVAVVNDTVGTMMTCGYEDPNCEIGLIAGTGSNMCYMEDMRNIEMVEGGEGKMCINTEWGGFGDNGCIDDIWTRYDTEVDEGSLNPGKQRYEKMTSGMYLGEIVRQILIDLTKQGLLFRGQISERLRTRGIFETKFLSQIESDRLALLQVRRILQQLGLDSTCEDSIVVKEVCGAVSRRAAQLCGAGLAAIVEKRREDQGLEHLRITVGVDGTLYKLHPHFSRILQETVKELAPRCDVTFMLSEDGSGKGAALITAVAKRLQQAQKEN
Put plainly: inhibition of HKDC1 glucose phosphorylation – biochemical, W721R variant, dose response (AID 504729). It counts as functional.

The target in a further experiment is T2, Estrogen receptor (Homo sapiens, UniProt P03372).
T2 sequence (P03372 whole entry): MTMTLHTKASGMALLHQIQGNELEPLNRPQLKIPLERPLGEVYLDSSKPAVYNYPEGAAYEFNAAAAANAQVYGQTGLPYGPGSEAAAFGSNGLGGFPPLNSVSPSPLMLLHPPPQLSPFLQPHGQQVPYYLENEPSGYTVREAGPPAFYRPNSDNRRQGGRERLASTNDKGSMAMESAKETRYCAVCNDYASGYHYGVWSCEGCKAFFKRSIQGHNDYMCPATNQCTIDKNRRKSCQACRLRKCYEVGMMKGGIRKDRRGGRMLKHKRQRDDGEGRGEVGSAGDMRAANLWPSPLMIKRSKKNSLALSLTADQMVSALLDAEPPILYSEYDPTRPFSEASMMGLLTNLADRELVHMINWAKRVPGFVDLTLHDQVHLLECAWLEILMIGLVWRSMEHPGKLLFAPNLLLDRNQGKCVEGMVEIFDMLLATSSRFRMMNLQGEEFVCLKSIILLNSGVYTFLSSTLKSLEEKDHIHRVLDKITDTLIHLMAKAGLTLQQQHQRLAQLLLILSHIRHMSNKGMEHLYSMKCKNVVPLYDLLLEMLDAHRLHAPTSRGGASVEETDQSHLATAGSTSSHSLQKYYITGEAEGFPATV

The target in another experiment is Estrogen receptor beta (Homo sapiens, UniProt Q92731).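 Also: recombinant ER-beta bound to coactivator SRC1 peptide in presence of estradiol agonist; inhibitors block coactivator peptide binding and lower the FRET signal.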
Sequence of Estrogen receptor beta (Q92731 whole entry): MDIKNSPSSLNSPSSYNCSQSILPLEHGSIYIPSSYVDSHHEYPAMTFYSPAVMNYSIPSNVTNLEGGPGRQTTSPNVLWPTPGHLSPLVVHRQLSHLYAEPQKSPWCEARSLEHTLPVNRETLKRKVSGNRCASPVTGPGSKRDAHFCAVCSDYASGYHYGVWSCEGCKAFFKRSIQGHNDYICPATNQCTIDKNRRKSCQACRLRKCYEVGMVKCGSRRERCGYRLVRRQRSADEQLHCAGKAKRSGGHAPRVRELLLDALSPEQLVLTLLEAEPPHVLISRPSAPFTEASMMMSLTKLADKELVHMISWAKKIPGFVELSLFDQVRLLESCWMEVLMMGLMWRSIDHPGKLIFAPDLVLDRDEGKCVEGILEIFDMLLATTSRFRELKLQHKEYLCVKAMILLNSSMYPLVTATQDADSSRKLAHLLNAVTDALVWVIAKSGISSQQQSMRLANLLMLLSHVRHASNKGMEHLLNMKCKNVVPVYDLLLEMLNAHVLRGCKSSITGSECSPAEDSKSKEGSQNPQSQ
The nature of experiment [1]: THP-1 cell cytotoxicity, dose response, cytotoxicity control for non-replicating M. tuberculosis project (AID 489025). It counts as functional.
Experiment [2] can be described thus: HepG2 cell cytotoxicity, dose response, cytotoxicity control for non-replicating M. tuberculosis project (AID 489018). It counts as functional. As to conditions: Mycobacterium tuberculosis.
The nature of experiment [3]: Vero E6 cell cytotoxicity, dose response, cytotoxicity control for non-replicating M. tuberculosis project, secondary assay (AID 492998). It counts as functional, VeroE6. As to conditions: Vero C1008.
A short description of a further experiment: cells. Format: functional.
The nature of experiment [4]: viability of HCT116 lacking mutant beta-catenin – cell-based, human colon tumor, dose response (AID 1045).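 Also: HCT116 colon tumor cells with beta catenin knocked out; cells exposed to compound for 60 hours.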 Format: functional.
Experiment [5] can be described thus: viability of PTEN-deleted HCT116 cells – cell-based, HCT116 PTEN knockout, dose response (AID 1047).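 Also: HCT116 colon tumor cells with PTEN knocked out; cells exposed to compound for 60 hours before readout; potency for loss of cell viability measured by luminescence.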 It counts as functional.
A short description of experiment [6]: A cytotoxicity screen of small molecule inhibitors of the PhoP region in Salmonella typhi identified in the primary screen. [Related pubchem assays: 1850, 1864, 1985 ]. It counts as functional.
The target of experiment [7] is T3, Alkaline phosphatase, tissue-nonspecific isozyme (Homo sapiens, UniProt P05186).
T3 sequence (P05186 whole entry): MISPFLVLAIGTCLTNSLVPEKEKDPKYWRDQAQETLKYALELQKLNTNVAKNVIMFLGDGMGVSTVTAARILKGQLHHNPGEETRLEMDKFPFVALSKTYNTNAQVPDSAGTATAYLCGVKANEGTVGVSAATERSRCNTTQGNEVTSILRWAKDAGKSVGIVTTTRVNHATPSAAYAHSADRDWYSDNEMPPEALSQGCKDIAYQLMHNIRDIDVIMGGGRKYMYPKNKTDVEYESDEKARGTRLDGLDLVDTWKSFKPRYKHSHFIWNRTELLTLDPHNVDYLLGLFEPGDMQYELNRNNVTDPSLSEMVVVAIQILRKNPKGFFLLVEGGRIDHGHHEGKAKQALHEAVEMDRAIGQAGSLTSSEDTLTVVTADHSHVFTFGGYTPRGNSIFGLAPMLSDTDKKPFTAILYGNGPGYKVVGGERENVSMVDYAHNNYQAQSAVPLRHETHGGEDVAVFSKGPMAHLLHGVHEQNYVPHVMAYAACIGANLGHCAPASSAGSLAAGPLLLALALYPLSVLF
Put plainly: potency against alkaline phosphatase TNAP – biochemical, luminescent, dose response, SAR follow-up (AID 1056).

The target in experiment [8] is Alkaline phosphatase, placental type (Homo sapiens, UniProt P05187). Put plainly: human placental alkaline phosphatase inhibition – biochemical, luminescence, confirmation (AID 1512). It counts as functional.
Sequence of Alkaline phosphatase, placental type (P05187 whole entry): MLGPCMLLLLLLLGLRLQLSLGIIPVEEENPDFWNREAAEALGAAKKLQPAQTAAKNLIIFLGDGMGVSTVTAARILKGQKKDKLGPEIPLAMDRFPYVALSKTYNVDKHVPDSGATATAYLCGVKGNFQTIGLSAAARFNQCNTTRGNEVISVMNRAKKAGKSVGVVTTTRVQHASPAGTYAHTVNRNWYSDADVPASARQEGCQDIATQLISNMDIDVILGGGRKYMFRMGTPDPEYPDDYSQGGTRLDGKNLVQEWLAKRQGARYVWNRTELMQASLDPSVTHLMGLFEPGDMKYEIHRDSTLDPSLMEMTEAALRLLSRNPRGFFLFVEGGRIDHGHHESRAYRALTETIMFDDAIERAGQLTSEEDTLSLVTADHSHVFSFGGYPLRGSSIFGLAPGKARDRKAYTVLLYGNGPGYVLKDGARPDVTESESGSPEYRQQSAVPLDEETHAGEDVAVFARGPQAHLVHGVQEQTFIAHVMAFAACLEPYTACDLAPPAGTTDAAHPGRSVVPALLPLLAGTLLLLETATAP
For experiment [9], the target named is Glyceraldehyde-3-phosphate dehydrogenase (Homo sapiens, UniProt P04406).
Sequence of Glyceraldehyde-3-phosphate dehydrogenase (P04406 whole entry): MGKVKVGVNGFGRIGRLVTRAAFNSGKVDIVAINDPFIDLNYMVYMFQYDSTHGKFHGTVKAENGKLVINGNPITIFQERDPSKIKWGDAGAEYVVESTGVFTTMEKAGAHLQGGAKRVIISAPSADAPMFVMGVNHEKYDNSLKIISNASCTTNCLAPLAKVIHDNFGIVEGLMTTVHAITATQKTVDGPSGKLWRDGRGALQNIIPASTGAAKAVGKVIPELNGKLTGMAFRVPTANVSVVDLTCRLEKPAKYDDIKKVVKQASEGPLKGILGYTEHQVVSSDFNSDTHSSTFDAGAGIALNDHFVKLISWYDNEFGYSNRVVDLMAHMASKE
Another experiment concerns the target T4, Protein RecA (Mycobacterium tuberculosis, UniProt P9WHJ3).
T4 sequence (P9WHJ3 whole entry): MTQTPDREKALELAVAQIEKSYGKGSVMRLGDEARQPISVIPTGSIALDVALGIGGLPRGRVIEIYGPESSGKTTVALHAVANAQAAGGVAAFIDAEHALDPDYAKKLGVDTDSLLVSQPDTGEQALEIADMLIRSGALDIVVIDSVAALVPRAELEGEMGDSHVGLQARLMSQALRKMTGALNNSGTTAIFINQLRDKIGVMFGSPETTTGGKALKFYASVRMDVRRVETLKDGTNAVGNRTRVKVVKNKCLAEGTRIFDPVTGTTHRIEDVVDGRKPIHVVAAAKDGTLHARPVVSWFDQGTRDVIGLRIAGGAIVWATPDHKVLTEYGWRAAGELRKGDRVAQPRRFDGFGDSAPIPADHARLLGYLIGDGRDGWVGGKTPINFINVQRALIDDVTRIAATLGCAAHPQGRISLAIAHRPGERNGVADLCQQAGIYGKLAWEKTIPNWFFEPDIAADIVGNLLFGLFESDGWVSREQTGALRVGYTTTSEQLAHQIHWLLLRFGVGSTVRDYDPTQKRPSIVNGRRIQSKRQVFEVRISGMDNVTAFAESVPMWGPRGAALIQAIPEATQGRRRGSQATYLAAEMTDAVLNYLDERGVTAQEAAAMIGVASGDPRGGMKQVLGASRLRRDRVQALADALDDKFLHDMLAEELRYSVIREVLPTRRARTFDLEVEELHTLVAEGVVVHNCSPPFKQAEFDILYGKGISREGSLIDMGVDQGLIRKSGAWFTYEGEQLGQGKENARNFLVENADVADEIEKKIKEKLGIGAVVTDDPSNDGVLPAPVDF
In words: Fluorescence Cell-Free Homogeneous Dose Retest to Identify Inhibitors of RecA-Intein Splicing Activity. [Related pubchem assays (depositor defined):AID2097, AID2223, AID489010, AID492950]. Format: functional.

In experiment [10] the target is T5, Replicative DNA helicase DnaB (Mycobacterium tuberculosis, UniProt P9WMR3).
T5 sequence (P9WMR3 whole entry): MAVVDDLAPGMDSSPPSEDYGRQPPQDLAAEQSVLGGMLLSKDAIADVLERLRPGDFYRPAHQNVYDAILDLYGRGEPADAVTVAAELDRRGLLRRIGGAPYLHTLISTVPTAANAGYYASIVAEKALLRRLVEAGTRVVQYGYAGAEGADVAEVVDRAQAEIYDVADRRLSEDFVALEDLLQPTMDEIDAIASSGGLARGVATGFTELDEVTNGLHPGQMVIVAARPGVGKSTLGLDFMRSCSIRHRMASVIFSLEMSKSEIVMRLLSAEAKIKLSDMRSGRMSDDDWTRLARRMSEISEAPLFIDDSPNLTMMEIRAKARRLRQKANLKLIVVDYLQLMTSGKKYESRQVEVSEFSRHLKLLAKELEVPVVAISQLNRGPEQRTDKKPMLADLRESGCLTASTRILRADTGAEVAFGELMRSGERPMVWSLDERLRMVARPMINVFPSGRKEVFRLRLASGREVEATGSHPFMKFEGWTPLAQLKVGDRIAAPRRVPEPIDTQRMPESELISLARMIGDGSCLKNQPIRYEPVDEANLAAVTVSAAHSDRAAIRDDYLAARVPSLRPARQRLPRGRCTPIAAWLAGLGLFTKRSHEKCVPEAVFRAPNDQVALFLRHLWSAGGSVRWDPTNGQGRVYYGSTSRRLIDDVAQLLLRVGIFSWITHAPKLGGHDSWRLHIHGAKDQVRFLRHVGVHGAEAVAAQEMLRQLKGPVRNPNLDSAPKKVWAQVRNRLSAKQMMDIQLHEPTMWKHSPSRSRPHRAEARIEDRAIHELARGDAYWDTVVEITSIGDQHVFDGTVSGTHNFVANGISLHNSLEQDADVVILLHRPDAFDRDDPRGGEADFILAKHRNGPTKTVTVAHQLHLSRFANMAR
Put plainly: DnaB intein splicing inhibitors, dose response, biochemical, cell-free fluorescence (AID 449749). It counts as functional.

Another experiment addresses Wee1-like protein kinase (Homo sapiens, UniProt P30291). Put plainly: HeLa cell cycle G2/M accumulation – FACS, mechanism study for Wee1 degradation inhibitor project, late-stage follow-up, panel member Wee1 Degradation (AID 2088).
The target of experiment [11] is G2/mitotic-specific cyclin-B1 (Homo sapiens, UniProt P14635). Put plainly: HeLa cell cycle G2/M accumulation – FACS, mechanism study for Wee1 degradation inhibitor project, late-stage follow-up, panel member Cyclin B Degradation (AID 2088).
Sequence of G2/mitotic-specific cyclin-B1 (P14635 whole entry): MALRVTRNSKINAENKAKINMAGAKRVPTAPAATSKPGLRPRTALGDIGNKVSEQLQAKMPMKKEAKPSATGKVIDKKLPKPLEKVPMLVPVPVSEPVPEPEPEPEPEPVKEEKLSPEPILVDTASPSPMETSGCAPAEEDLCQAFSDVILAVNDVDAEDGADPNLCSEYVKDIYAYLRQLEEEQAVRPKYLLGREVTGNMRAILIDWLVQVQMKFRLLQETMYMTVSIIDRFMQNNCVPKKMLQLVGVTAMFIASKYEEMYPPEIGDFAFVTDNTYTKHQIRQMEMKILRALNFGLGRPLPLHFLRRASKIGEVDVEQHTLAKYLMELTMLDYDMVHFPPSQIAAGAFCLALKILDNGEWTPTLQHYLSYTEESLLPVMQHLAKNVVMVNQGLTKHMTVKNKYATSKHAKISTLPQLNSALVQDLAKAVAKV

Active and inactive are the calls of the source.

Sequence of Wee1-like protein kinase (P30291 whole entry): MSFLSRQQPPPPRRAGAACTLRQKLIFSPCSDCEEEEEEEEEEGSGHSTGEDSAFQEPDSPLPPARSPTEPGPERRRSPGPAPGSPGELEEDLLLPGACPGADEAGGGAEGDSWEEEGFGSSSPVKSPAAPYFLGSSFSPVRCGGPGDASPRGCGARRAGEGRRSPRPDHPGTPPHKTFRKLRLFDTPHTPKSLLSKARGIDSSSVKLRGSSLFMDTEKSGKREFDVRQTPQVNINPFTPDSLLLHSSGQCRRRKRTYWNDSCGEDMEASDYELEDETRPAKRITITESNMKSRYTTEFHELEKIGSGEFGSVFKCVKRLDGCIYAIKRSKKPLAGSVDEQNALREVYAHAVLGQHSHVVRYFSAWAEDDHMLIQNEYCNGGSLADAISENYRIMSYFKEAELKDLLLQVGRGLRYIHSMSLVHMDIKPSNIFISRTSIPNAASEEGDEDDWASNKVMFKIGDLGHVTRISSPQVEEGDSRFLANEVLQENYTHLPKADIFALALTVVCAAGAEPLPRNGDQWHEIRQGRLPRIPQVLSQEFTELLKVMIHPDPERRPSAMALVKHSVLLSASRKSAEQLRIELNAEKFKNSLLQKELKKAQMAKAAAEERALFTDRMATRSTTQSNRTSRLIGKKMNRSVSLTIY

On to `Cc1nc2c(c(=O)c3ccccc3n2C)c(=O)n1-c1ccc(F)cc1`, for which the IC50 at Hexokinase HKDC1 is 8.25 µM (active).
With `CCOC(=O)c1c(C)oc2c1c(C(c1cccnc1)N1CCCCC1)c(O)c1ccccc12` (stereo not drawn), the IC50 on Estrogen receptor and at Estrogen receptor beta was > 50 µM (not active) in each case.
As to `CCOc1cc(CNC(C)(C)CO)cc(Br)c1OCc1ccc(Cl)cc1Cl`, the CC50 in [1] was 13.4 µM (active); in experiment [2] it was 13.7 µM (active); in experiment [3], 7.44 µM (active). For the same compound, the IC50 in “cells” is 10.5 µM (active). Also, the EC50 was 6.52 µM (active) in experiment [4] and 7.54 µM (active) in [5].
Take `COc1ccc2nc(NC(=O)C3CC(=O)N(c4ccccc4)C3)sc2c1` (stereo not drawn): in [6], the EC50 is > 50 µM (active).
As for `COc1ccccc1-c1nnc(SC)[nH]1`, the IC50 was 7.95 µM (active) in experiment [7], > 100 µM (inactive) in experiment [8] and > 100 µM (not active) in [9].
Turning to `CN1CCc2nc(SCC(=O)Nc3ccc(F)cc3)c(C#N)cc2C1`, the EC50 on Protein RecA is 38 µM (active). Also, the AC50 in experiment [10] was > 380 µM (inactive). For the same compound, the IC50 on Estrogen receptor was > 50 µM (not active).
For `Cc1ccc(NC(=O)OCc2cccs2)cc1`, in experiment [6], the EC50 was > 50 µM (active).
For `OCCSc1n[nH]c(-c2ccccc2)n1`, the IC50 in experiment [7] is 16.2 µM (active); in [8], > 100 µM (inactive); in [9], > 100 µM (not active).
`Cc1cc(C)n2cc(CSc3nnc(-c4ccccc4)c(-c4ccccc4)n3)nc2n1`: the IC50 at Hexokinase HKDC1 was 12.5 µM (active).
On to `[O-][n+]1onc2c3cc(-c4ccccc4)[nH]c3ccc21`, for which the EC50 was > 6.19 µM (active) on Wee1-like protein kinase and > 55.7 µM (inactive) in [11].
The corresponding values for `Cc1cc(O)nc(-n2nc(C)cc2NC(=O)Cc2ccccc2)n1` are > 49.7 µM (inactive) and > 49.7 µM (inactive).
The corresponding values for `Cc1cc(O)nc(-n2nc(C)cc2NC(=O)c2cccc(Cl)c2)n1` are > 49.7 µM (inactive) and > 49.7 µM (inactive).
As for `CC1(C)N=C(N)N=C(Nc2cccc(Br)c2)N1`, in experiment [6], the EC50 was > 50 µM (active).
